Patent publication US20240287104A1, “NUCLIDE LABELLED H-TETRAZINES AND USE THEREOF FOR PET AND SPECT PRETARGETED IMAGING AND RADIONUCLIDE THERAPY” (RIGSHOSPITALET, priority 2020, published 2024)

Assays:
[1] = system: CC49-TCO pretargeted LS174T tumor xenografts; test: Pretargeted PET imaging with six 18F-labeled Tz-derivatives (Example 140); assay type: in vivo, BALB/c nude mice; conditions: PET 1 h p.i., n=3-4 per group
Description: Mice (n=3-4 per group) were injected i.v. with either CC49-TCO or 0.9% saline (control experiments). After 72 h, ^18F-labeled Tz (5-10 MBq) were administered and the mice were PET/CT-scanned 1 h p.i. A 3D region of interest (ROI) was created on the entire tumor volume, as well as heart and muscle tissue, and the uptake was quantified as percentage of the injected dose per gram (mean % ID/g), tumor-to-blood (T/B) and tumor-to-muscle (T/M) ratios (FIG. 18A-D). FIG. 18 (A) is a schematic illustration of the pretargeting experiment and the research question: Is there a correlation between the blocking effect and the PET imaging contras. (B) Image-derived mean uptake values are presented as percentage of the injected dose per gram (% ID/g) in tumor. (C) Tumor-to-muscle (T/M) ratios (n=4 mice, except for [^18F]3, n=3). Data is represented as mean±S.D. (*p<0.05 and *** p<0.001). For all groups n=4 mice (except [^18F]3a where n=3) (D) Correlation between the blocking effect of the unlabeled Tz-derivatives 1a, 3a, 19a, 26a, 44a, and 45a and the T/M-ratios for the corresponding ^18F-labeled compounds observed by in vivo pretargeted PET imaging. A strong correlation was found (linear regression: R2=0.78, p=0.019, n=6). Data is represented as mean±S.D. The asterisk indicates significant difference (* p<0.05 and *** p<0.001) when compared to control. (E) Representative images of PET scans 1 h p.i. of the radiolabeled Tz ([^18F]1a, [^18F]3a, [^18F]19a, [^18F]26a, [^18F]44a and [^18F]45a) in pretargeted PET imaging studies (T indicates the position of the tumor).
This difference was also observed for the three ^18F-labeled Tz-derivatives showing specific tumor accumulation ([^18F]3a, [^18F]19a and [^18F]45a), but not for the non-accumulating probes [^18F]1a and [^18F]26a (FIG. 18B). Binding to residual mAb in the blood pool is a frequently reported challenge in pretargeted imaging approaches, and has been addressed by the development of clearing agents.

[2] = system: CC49-TCO pretargeted LS174T colon carcinoma xenografts; test: Pretargeted blocking assay with [111In]Q (Example 140); assay type: in vivo, BALB/c mice; conditions: as listed in Table 6, value of the unlabeled Tz
Description: All animal studies were approved by the Danish Animal Welfare Council, ministry of Justice. Five weeks old female nude BALB/c mice (Charles River, Sulzfeld, Germany) were allowed to acclimatize for one week with access to water and chow ad libitum. Human colon cancer cell line (LS174T; obtained from ATCC) was cultured in minimum essential medium (MEM) supplemented with 10% fetal bovine serum, 1% L-Glutamine, 1% Sodium pyruvate, 1% non-essential amino acids, and 1% penicillin-streptomycin at 37° C. and 5% CO2. Cells were harvested by trypsination at a confluence of 70-90% and subcutaneous tumors were established in the left flank of the 6 weeks old animals by inoculation of ˜5×10^6 LS174T cells resuspended in sterile PBS (100 μL) and allowed to grow for 7-10 days. Tumors were measured using a caliper and the volume calculated using the formula volume=½(length×width^2).
The assay was inspired by receptor blocking experiments and based on the pretargeted imaging approach reported by Rossin et al. An ^111In-labeled Tz [^111In]Q was used in pair with TCO-modified CC49, a non-internalizing mAb that targets the tumor-associated glycoprotein 72 (TAG72), as a benchmark model for the in vivo ligation.
The TCO-modification of CC49 was carried out according to Rossin et al. To study the in vivo ligation performance of Tz-derivatives 1a-45a, BALB/c mice bearing LS174T colon carcinoma xenografts were injected intravenously (i.v.) with CC49-TCO 72 h prior to i.v. injection of the unlabeled Tz, followed by administration of [^111In]Q 1 h later. The animals were euthanized after 22 h and an ex vivo biodistribution was carried out to quantify the tumor uptake of [111 In]Q (FIG. 15). The efficiency of the in vivo ligation of the unlabeled Tz can thus be correlated to a reduced uptake of [111 In]Q (FIG. 15). As a control, blocking was performed using the non-radioactive precursor of [^111In]Q, which blocked ≥99% of the [^111In]Q tumor uptake. A group of CC49-TCO pretreated mice were injected exclusively with [^111In]Q (without blocking) and the determined uptake was used as reference value (100%) to normalize the observed changes in tumor uptake in blocking experiments.
All of these probes include H-phenyl-, pyrimidyl-phenyl-, or bis(pyridyl)-Tz-scaffolds with second-order rate constants for the reaction with TCO of >70 M 1 s 1 (1,4-dioxane, 25° C.) or of >39,000 M 1 s 1 (DPBS, 37° C.) (cf. Table 5). Next, potential correlations between the blocking effect, the c log D7.4 and the TPSA, as well as IEDDA reactivity were investigated. […] However, a distinct relationship between c log D7.4 values and the blocking effect was evidently observed when comparing Tz-derivatives with similar IEDDA reactivity (FIG. 16C, 16D). For all Tz-scaffolds a Pearson's correlation coefficient >0.78 was found. […] The blocking effect of non-radiolabeled Tz was determined as the change in tumor uptake of [111 In]Q 22 h p.i. Each Tz was administered 1 h prior to [111 In]Q and the uptake normalized to a group of animals were no blocking was performed (control). Data represent mean from n=3 mice/group. Correlation of blocking effect and c log D7.4 for Tz-derivatives with similar IEDDA reactivity (as shown in FIGS. 16C and D) where data was fitted to exponential growth equation Y=Y0 ekx (dotted line). The statistical analysis of the correlation between tumor uptake and c log D7.4 for the different groups of Tz-derivatives (shown in Table 7) was obtained by Pearson's correlation coefficient (r) which describes the goodness of fit between the blocking effect and c log D7.4. Notes: a Reaction of representative Tz with unsubstituted TCO; “Reaction of representative Tz with TCO-PEG4;” Measured for Tz-scaffold A only; n.d.=not determined.

[3] = In vivo stability of 18F-labeled Tz-derivatives, plasma radio-TLC; conditions: naïve mice, n=4
Source text: In order to verify that the results from the blocking study can be used to predict the outcome for in vivo PET imaging, 18 Tz-derivatives from the first library were selected. The selection was based on criteria such as, the possibility for ^18F-labeling, structural diversity, lipophilicities and distinct IEDDA reactivities. For this purpose, we decided to use an indirect radiolabeling approach, enabling the combination of different building blocks to rapidly access a series of ^18F-labeled Tz-derivatives. The Cu-catalyzed azide-alkyne [3+2] cycloaddition (CuAAC) appeared to be suitable in this respect, as it allows for fast and efficient radiolabeling under mild reaction conditions. Six precursor Tz-alkynes (I-VI) were prepared and reacted with three ^18F-labeled azides ([^18F]Az1-Az3) to obtain 18 different [^18F]Tz-probes (FIG. 17). Notes to Table 6 showing the results obtained: ^aRCYs were decay-corrected to the starting amount of radioactivity for the respective azide or *RCY was determined starting from ^18F—. ^bMolar activities (Am) differ due to the use of different cyclotrons. ^cRCP was determined by radio-HPLC. ^dIn vivo stability of [^18F]Tz was assessed by determining the fraction (%) of radioactivity corresponding to intact compound after 30 min (n=4) from radio-TLC analysis. n.d.=not determined.
Next, we investigated whether there is a relationship between the in vivo stability of Tz-derivatives and their blocking ability. Fifteen ^18F-labeled tetrazines were studied in naïve mice. Blood was collected after 30 min, and plasma samples were analyzed by radio-TLC for stability assessment (Table 6). […] Consequently, six [^18F]Tz ([^18F]1a, [^18F]3a, [^18F]19a, [^18F]26a, [^18F]44a, and [^18F]45a) were selected for further in vivo studies solely based on the IEDDA-reactivity (second-order rate constants between 72 and 230 M^−1s^−1) and lipophilicity (c log D7.4 between −1.53 and 2.10). These radiolabeled Tz-probes were used to investigate if the results from the blocking assay can be translated to pretargeted PET imaging at tracer doses.

[4] = Second order rate constants from stopped-flow measurements with TCO at 25° C. in ACN (Table 1); assay type: physicochemical; conditions: second order rate constants estimated from stopped-flow measurements of the alkyne-Tz building block with TCO at 25° C. in ACN
Description: In Table 1, the following letters in brackets defines the following: [a] Radiochemical conversion (RCC) and Radiochemical purity (RCP) were determined by radio-HPLC (n=3); [b] Radiochemical yield (RCY) was decay corrected to the starting amount of radioactivity received from the cyclotron and the isolated product without formulation step (n=3); [c] Second order rate constants estimated from stopped-flow measurements of the alkyne-Tz building block with TCO at 25° C. in CAN; [d] No product formed or could not be isolated.
Reaction kinetics of the Tz-derivatives were determined by pseudo-first order measurements in dioxane at 25.0±0.1° C. or PBS at 27.0±0.1° ° C. in a SX20 stopped flow photometer (Applied Photophysics). The pseudo first order rate constant was determined by linearization of the decay curve followed by linear fitting. The second order rate constant was calculated from the pseudo-first order rate constant.

Row | SMILES | In vivo stability (% intact [^18F]Tz after 30 min) [3] [%] | Tumor accumulation in mice pretreated with CC49-TCO compared to control animals [1] | Blocking effect (%) (of unlabeled Tz) [2] | k2 [4] [M⁻¹ s⁻¹]
1 | O=C(Nc1ccc(-c2nnc(-c3ccccn3)nn2)nc1)c1ccc(-c2cn(CC[18F])nn2)cc1 [[^18F]25a] |  |  | 16 | 
2 | O=C(Nc1ccc(-c2nnc(-c3ccccn3)nn2)nc1)c1ccc(-c2cn([C@@H]3O[C@H](C[18F])[C@@H](O)[C@H](O)[C@H]3O)nn2)cc1 [[^18F]27a] |  |  | 51 | 
3 | [18F]c1cccc(-c2nncnn2)c1 [[^18F]-9] |  |  |  | 222
4 | [18F]c1ccc(-c2nnc(-c3ccccc3)nn2)cc1 [[^18F]E] |  |  |  | 18
5 | [18F]c1cccc(-c2nnc(-c3ccccc3)nn2)c1 [[^18F]R] |  |  |  | 30
6 | [18F]c1ccc(-c2nnc(-c3ccccn3)nn2)cc1 [[^18F]T] |  |  |  | 106
7 | Cc1nnc(-c2ccc([18F])cc2)nn1 [[^18F]Tz1] |  |  |  | 2.25
8 | [18F]c1ccc(-c2nnc(-c3ccccn3)nn2)nc1 [[^18F]U] |  |  |  | 206
9 | [18F]c1ccc(-c2nncnn2)cc1 [[^18F]Y] |  |  |  | 159

Now from value to compound, other results behind:

Row | In vivo stability (% intact [^18F]Tz after 30 min) [3] [%] | SMILES | Tumor accumulation in mice pretreated with CC49-TCO compared to control animals [1] | Blocking effect (%) (of unlabeled Tz) [2] | k2 [4] [M⁻¹ s⁻¹]
10 | 90 | [18F]CCn1cc(COc2ccc(-c3nncnn3)cc2)nn1 [[^18F]1a] | no significant difference in tumor uptake | 9 | 
11 | 76 | O[C@@H]1[C@@H](O)[C@H](n2cc(COc3ccc(-c4nncnn4)cc3)nn2)O[C@H](C[18F])[C@H]1O [[^18F]3a] | significantly increased tumor accumulation | 81 | 
12 | 26 | Cc1nnc(-c2ccc(OCc3cn(CC[18F])nn3)cc2)nn1 [[^18F]5a] |  | 10 | 
13 | 60 | Cc1nnc(-c2ccc(OCc3cn([C@@H]4O[C@H](C[18F])[C@@H](O)[C@H](O)[C@H]4O)nn3)cc2)nn1 [[^18F]7a] |  | 3 | 
14 | 10 | [18F]CCn1cc(COc2ccc(-c3nnc(-c4ccccn4)nn3)cc2)nn1 [[^18F]12a] |  | 0 | 
15 | 43 | O[C@@H]1[C@@H](O)[C@H](n2cc(COc3ccc(-c4nnc(-c5ccccn5)nn4)cc3)nn2)O[C@H](C[18F])[C@H]1O [[^18F]14a] |  | 24 | 
16 | 32 | [18F]CCn1cc(-c2ccc(-c3nncnn3)cc2)nn1 [[^18F]17a] |  | 0 | 
17 | 87 | O[C@@H]1[C@@H](O)[C@H](n2cc(-c3ccc(-c4nncnn4)cc3)nn2)O[C@H](C[18F])[C@H]1O [[^18F]19a] | significantly increased tumor accumulation | 76 | 
18 | 10 | O=C(CCc1cn(CC[18F])nn1)Nc1ccc(-c2nnc(-c3ccccn3)nn2)nc1 [[^18F]43a] |  | 67 | 
19 | 42 | O=C(CCc1cn([C@@H]2O[C@H](C[18F])[C@@H](O)[C@H](O)[C@H]2O)nn1)Nc1ccc(-c2nnc(-c3ccccn3)nn2)nc1 [[^18F]45a] | significantly increased tumor accumulation | 99 | 
